In ChEMBL document CHEMBL5308541, “MAIP: An Open-Source Tool to Enrich High-Throughput Screening Output and Identify Novel, Druglike Molecules with Antimalarial Activity” (ACS Med Chem Lett, 2023):

Tests used:
Plasmodium falciparum [1] = test: Hit confirmation in dose-response curve in NF54 nanoGlo assay, at 72h; type: functional, organism-based, Erythrocyte; parameters: timepoint 72 hour; settings: Plasmodium falciparum, NF54, Erythrocyte, 72 h
Plasmodium falciparum [2] = test: Hit confirmation in dose-response curve in NF54 pLDH assay, at 72h; type: functional, organism-based, Erythrocyte; parameters: timepoint 72 hour; settings: Plasmodium falciparum, NF54, Erythrocyte, 72 h
Plasmodium falciparum [3] = test: Hit confirmation in dose-response curve in Dd2 pLDH assay, at 72h; type: functional, organism-based, Erythrocyte; parameters: timepoint 72 hour; settings: Plasmodium falciparum, Dd2, Erythrocyte, 72 h
Plasmodium falciparum [4] = test: Hit confirmation in dose-response curve in NF54 nanoGlo assay, at 12h; type: functional, organism-based, Erythrocyte; parameters: timepoint 12 hour; settings: Plasmodium falciparum, NF54, Erythrocyte, 12 h
[5] = Hit confirmation in dose-response curve in HepG2 cytotoxicity assay, at 72h; type: toxicity, cell-based, Homo sapiens; parameters: timepoint 72 hour; settings: human, HepG2 cells

| SMILES | IC50 (Plasmodium falciparum [1]) [µM] | IC50 (Plasmodium falciparum [2]) [µM] | IC50 (Plasmodium falciparum [3]) [µM] | IC50 (Plasmodium falciparum [4]) [µM] | IC50 at 72 h [5] [µM] |
| --- | --- | --- | --- | --- | --- |
| Cc1ccc(CNc2ncnc(N)c2Cl)c(N2CCCC2)n1 | 2.45 | > 10 | > 10 | 1.07 | > 10 |
| Oc1cccc2c1CCC[C@@H]2NCc1ccc2occc2c1 | 4.07 | 9.33 | 8.51 | 4.57 | > 10 |
| Nc1ccc(Nc2ccc(F)cc2)c2ccncc12 | 4.37 | 7.41 | 4.37 | 7.41 | > 10 |
| CN1CCN(CCNC2CCN3CCCC3C2)C(c2ccccc2)C1 (stereo not given) | 4.17 | 4.27 | 3.8 | > 10 | > 10 |
| O=C(NCc1ccc(OC(F)(F)F)cc1)N(CCN1CCCC1)[C@H]1CCCNC1 | 4.57 | 5.37 | 4.47 | > 10 | > 10 |
| CN(C)CC12CNCC1CN(c1ccnc3cc(Cl)ccc13)C2 (stereo not given) | 0.0417 | 0.0309 | 0.043 | 0.0513 | > 10 |
| COc1ccc(-c2cc(-c3ccccc3O)n([C@@H]3C(=O)Nc4ccc(Br)cc43)n2)cc1 | 4.07 | 8.71 | 8.71 | 4.9 | > 10 |
| CN1CCC(N2CCC(NC(=O)c3ccc(S(=O)(=O)N(C)C4CCCCC4)cc3)CC2)CC1 | 4.27 | 5.89 | 3.89 | 9.33 | > 10 |
| NCCCCc1c(-c2cccnc2)[nH]c2c(Cl)cc(Cl)cc12 | 4.47 | 4.47 | 4.07 | 6.92 | 9.55 |
| CC(C)c1ccc(-c2noc(CCN3CCN(CCCN(C)C)CC3)n2)cc1 | 7.94 | > 10 | 8.51 | > 10 | > 10 |
| COc1ccc(-c2cc(C(=O)Nc3ccc(N4CCN5CCCC5C4)cc3)c3c(C)noc3n2)cc1 (stereo not given) | 4.27 | 7.59 | 5.75 | 6.46 | > 10 |
| O=C1C2CCCCC2C(c2c(-c3ccccc3)[nH]c3ccccc23)N1Cc1ccccc1 (stereo not given) | > 10 | > 10 | > 10 | > 10 | > 10 |
| Fc1ccc(N2CC[C@H](CN3CCC(c4c[nH]c5ccccc45)(c4c[nH]c5ccccc45)CC3)C2)cc1 | 1.91 | 6.61 | 4.27 | 2.51 | > 10 |
| O=C(NCC1CC1)c1cc2c(OCc3ccc(Cl)cc3)cccc2[nH]1 | 3.89 | 10.2 | 6.46 | > 10 | > 10 |
| OC1(c2ccc(Cl)cc2)CCN(C[C@@H]2CCCN3CCCC[C@H]23)CC1 | 3.98 | 4.07 | 3.72 | 7.41 | > 10 |

The next lines start with results.

| IC50 (Plasmodium falciparum [1]) [µM] | IC50 (Plasmodium falciparum [2]) [µM] | IC50 (Plasmodium falciparum [3]) [µM] | IC50 (Plasmodium falciparum [4]) [µM] | SMILES | IC50 at 72 h [5] [µM] |
| --- | --- | --- | --- | --- | --- |
| 0.912 | 1.41 | 2.4 | > 10 | COc1ccc2nc3cc(Cl)ccc3c(O)c2c1 | > 10 |
| 1.35 | 1.35 | 1.2 | 1.91 | CN1CCN(CC2CCN(c3ccnc4ccccc34)CC2)CC1 | > 10 |
| 3.89 | 3.31 | 3.47 | 8.91 | Cc1ccc2nc(CCCNC3CCN(c4cc(C)nc(N)n4)CC3)oc2c1 | > 10 |
| 1.95 | 2.45 | 2 | 3.55 | CCOc1ccc2nc(CN(CC)CC3CCN(C4CCN(C)CC4)CC3)ccc2c1 | > 10 |
| 2.88 | 3.72 | 2.69 | 7.94 | c1cncc(-c2ccc(CNC3CCN(Cc4cccs4)CC3)cc2)c1 | > 10 |
| 3.47 | 3.72 | 3.16 | 5.25 | Clc1cccc(N2CC[C@H](CNC3CCN(Cc4ccco4)CC3)C2)c1 | > 10 |
| 3.24 | 5.75 | 5.37 | > 10 | O=C(NCCNc1ccnc2ccncc12)c1ccc(C(F)(F)F)cc1 | > 10 |
| 1.38 | 1.51 | 1.45 | 1.82 | COCCN1CC[C@H](CN(C)c2ccnc3cc(Cl)ccc23)C1 | > 10 |
| 3.16 | 7.76 | 6.31 | 6.76 | Oc1ccc(OC(F)(F)F)cc1-c1ccc2nccn2n1 | > 10 |
| 1.78 | 2.69 | 2.69 | 4.68 | N#Cc1ccc(N2C[C@H](COCC3CC3)C3(CCN(Cc4cccc(O)c4)CC3)C2)cc1C(F)(F)F | > 10 |
| 3.63 | 9.33 | 7.94 | 8.51 | CN1C(C)(C)CC(NC(=O)c2ccc(-c3cc(-c4cccc(C(F)(F)F)c4)n[nH]3)cc2)CC1(C)C | > 10 |
| 1.95 | 3.39 | 3.89 | 8.91 | CCN1CCN(c2ccc(CNCc3cccc(O)c3)cc2F)CC1 | > 10 |
| 2.34 | 8.51 | 3.39 | 5.01 | O[C@@H](CNCc1cc2cc(Cl)c(Cl)cc2[nH]1)c1ccc(F)cc1 | > 10 |
| 3.24 | > 10 | > 10 | 1.41 | Cn1cc(-c2cncc(C(=O)NC3CCN(c4cccc(F)c4)CC3)c2)cn1 | > 10 |
| 2.51 | 7.24 | 7.08 | 4.9 | COc1ccc2cc(NC(=O)c3cc(-c4c(C)nn(C)c4C)[nH]n3)cnc2c1 | > 10 |
| 0.708 | 0.977 | 0.741 | 3.63 | Cc1ccccc1CN1CCC(CNc2c3c(nc4ccccc24)CCC3)CC1 | 5.25 |
| 3.8 | > 10 | 9.33 | > 10 | Cc1ccc(-c2nnc(Nc3ccccc3)c3ccccc23)cc1CN1C(=O)c2ccccc2C1=O | > 10 |
| 2.4 | 3.47 | 3.47 | > 10 | CCNc1cc(C)nc(NCCNC(=O)Nc2cc(F)cc(F)c2)n1 | > 10 |
| 0.263 | 0.389 | 0.269 | 0.562 | CCNc1nc(C)cc(Nc2ccc(NC(=O)Nc3ccc(F)cc3F)cc2)n1 | 2.63 |
| 3.02 | 5.37 | 2.75 | 8.71 | COCCNc1nc(N[C@@H](C)c2ccccc2)c2ccccc2n1 | > 10 |
| 0.603 | 1.29 | 0.955 | 3.09 | COC(=O)c1cn(CCNc2ccnc3cc(Cl)ccc23)cc2c(O)nnc1-2 | > 10 |
| 2.63 | 3.47 | 2.69 | 4.79 | CN(C)Cc1cccc(CCNCc2csc(-c3ccc(C(F)(F)F)cc3)n2)c1 | 7.76 |
